Experimental data reported in patent publication US9150528B2, “Compound having detrusor muscle-contracting activity and urethral sphincter muscle-relaxing activity” (ONO PHARMACEUTICAL CO., LTD., priority 2009, dated 2015).

What was measured:
normal rats = test: Blood pressures and heart rates in normal rats; assay type: in vivo, rat; conditions: oral; for effect on the blood pressure / increase in heart rate: 0.3 mg/kg
Protocol: The blood pressures and heart rates of female Wistar rats were measured in accordance with the following procedure. On the day of measurement, indwelling of catheters for blood pressure•heart rate measurement was carried out under anesthesia with ether. The back of the neck of each rat was incised; a feeding catheter (Atom Medical Corporation) filled with heparinized physiological saline was introduced from the back of the neck; the catheter was inserted into the common carotid artery; and the surgical incision was closed. The measurements were carried out in a Bollmann cage under the conscious state, and the evaluations were carried out after confirming that the individual parameters were stabilized. After confirming the stabilization of blood pressure and heart rate, the test compound which was prepared using injectable water containing equimolar NaOH was orally administered at a dose of 5 mL/kg.
The catheter drawn from the back of the neck was connected to a pressure transducer (DX-200, NIHON KOHDEN CORP.), and the blood pressures and heart rates were measured using an amplifier for pressure measurement (Gould Instrument). The blood pressures and heart rates were recorded using a recorder (LINEARCORDERWR3320, GRAPHTEC). For each individual, rates of increase and decrease in average blood pressure and heart rate before administration and 30, 60, 120, and 180 min after administration were calculated with respect to the values of each individual before administration. Changes in blood pressure and heart rate before and after administration of the test compound were evaluated.

[1] = system: human lyophilized liver cells; test: Stability evaluation in lyophilized liver cells; assay type: in vitro ADME; conditions: 37° C.
Protocol: KHEM5100 medium which includes human lyophilized liver cells after dissolving (final concentration of living cells: 1×10^6 cells/mL) and the test compound (acetonitrile or methanol solution, final concentration≦1%) was incubated at 37° C. Immediately after reaction and with the passage of reaction time, some portions were sampled from the medium. The concentrations of the test compound in the samples were measured by LC/MS/MS. The residual rate of the test compound relative to immediately after reaction was calculated by the following equation: Residual rate=the concentration of the test compound in the sample after reaction/the concentration of the test compound in the sample immediately after reaction×100(%) The residual rates were plotted on a single logarithmic scale against reaction time to calculate loss rate constants. The test was repeated (n=2), and the obtained values were averaged.

[2] = system: spontaneously hypertensive rats; test: Blood pressure and heart rate measurement in hypertensive rats; assay type: in vivo, rat; conditions: continuous intravenous
Protocol: The blood pressures and heart rates of male spontaneously hypertensive rats were measured. On the day of measurement, indwelling of catheters for blood pressure•heart rate measurement and subject substance administration was carried out under anesthesia with ether. The back of the neck of each rat was incised, a feeding catheter (Atom Medical Corporation) filled with heparinized physiological saline was introduced from the back of the neck; the catheter was inserted into the common carotid artery and internal jugular vein; and the surgical incision was closed. The measurements were conducted in a Bollmann cage under the conscious state and evaluations were carried out after confirming that the individual parameters were stabilized. After confirming the stabilization of blood pressure and heart rate, the test compound was continuously administered intravenously at a flow rate of 5 mL/kg/h for 30 min.
The catheter drawn from the back of the neck was connected to a pressure transducer (DX-200, NIHON KOHDEN CORP.), and the blood pressures and heart rates were measured using a blood pressure amplifier (Gould instrument). The blood pressures and heart rates were recorded on recording paper using a recorder (LINEARCORDER WR3320, GRAPHTEC). The blood pressures and heart rates were converted into values on the recording paper before administration and 2.5, 5, 10, 15, 30, 45 and 60 min after administration. For each individual, rates of increase and decrease in the parameters were evaluated relative to the value before administration (value at 0 min).

[3] = system: urinary excretion dysfunction models; test: Urinary excretion dysfunction models, maximal urinary flow rate; assay type: in vivo; conditions: 60 ng/kg/h continuous intravenous, cynomolgus monkey urinary excretion dysfunction model
From the text: Urinary excretion dysfunction models were constructed in accordance with the following procedure. After anesthesia of cynomolgus monkeys, the region from the suprapubic area to the abdominal area was shaved, followed by fixing in a dorsal position. The shaved region was disinfected and the four legs were fixed. Using an electrosurgical knife, the skin region from the suprapubic area to the umbilical area and the peritoneal membrane were sequentially incised, followed by damage to the pelvic nerve and removal of the uterus. After the surgical operation, viccillin-containing physiological saline was added dropwise to the incised area. The peritoneal membrane and skin of the incised area were sutured with silk threads and disinfected. Viccillin was administered for 7 consecutive days after surgery. Meloxicam was administered once daily for 7 consecutive days to manage pain in the perioperative period.
The cynomolgus monkeys were seated on monkey chairs, followed by retention of the hands and legs with strings. Injectable water was administered orally, and physiological saline and the test compound (60 ng/kg/h) were continuously administered intravenously to allow urination freely. The maximal urinary flow rate was measured using a urine weighing sensor.

cynomolgus monkeys = test: Effects on cardiac function in anesthetized cynomolgus monkeys; assay type: in vivo, cynomolgus monkey; conditions: continuous intravenous 30 min
Protocol: Cynomolgus monkeys were anesthetized with pentobarbital (at an initial dose of 20-30 mg/kg by intravenous administration; at a dose of 4-5 mg/kg/hr by intravenous continuous administration). A tracheal tube was inserted and experiments were carried out under artificial respiration (fresh air+pure oxygen, ventilatory volume: 10-15 mL/kg, ventilation frequency: 10-15 times/min). In the right lying position, the left thorax was opened between the fourth and fifth intercostal spaces. The […] (the origin of the left anterior descending artery or circumflex branch) and the origin of the ascending main artery were peeled off and transducers for blood flow measurement were located there. The blood flow rates were measured using an electronic blood flowmeter or an ultrasonic blood flowmeter. The blood pressures were measured using a pressure transducer in a state where a catheter was inserted into the right femoral artery. The left ventricular internal pressure was measured in a state where a catheter was inserted from the left carotid artery into the left ventricle. The electrocardiogram was measured using needle electrodes installed in the right armpit and the left thorax. After catheters for administration were inserted into the right and left cephalic veins and femoral veins, the test compound, pentobarbital (under anesthesia) or an aqueous solution (SOLITA T3 containing 1.2% NaHCO3) were administered therethrough. The test compound was continuously administered intravenously 30 min using a continuous infusion system. The blood pressure, left ventricular internal pressure, blood flow rate through the coronary artery and electrocardiogram data were simultaneously inputted to a PowerLab system (LabChart6, AD instruments) to measure/calculate average blood pressure, heart rate, average blood flow rate through the coronary artery, beat volume, stroke volume (beat volume/heart rate), maximum first deviation of the left ventricular internal pressure, total peripheral blood vessel resistance (average blood pressure/beat volume), cardiac performance (average blood pressure x beat volume) and double product (systolic arterial pressure x heart rate), which is indicative of myocardial oxygen consumption.
The averages of all evaluation parameters for 1 min were obtained before administration, immediately after administration, and 10 min, 20 min and 30 min after administration, and changes of the averages relative to the value measured before administration which is defined as 100% were calculated.

[4] = Parallel artificial membrane permeability assay (PAMPA); assay type: in vitro ADME; conditions: sum of pH 5.0, 6.2 and 7.4, 25° C., read-out: membrane permeability coefficients (PAMPA(SUM))
Protocol: The permeability of the drugs through artificial membranes was measured by parallel artificial membrane permeability assay (PAMPA) under the following conditions. For the measurements, a PAMPA system (pION) was used. The membrane permeability was evaluated by measuring membrane permeability coefficients at three pH values and summing the values (PAMPA(SUM)(cm/sec)).
Lipid membrane: GIT-0 (pION)
Incubation temperature: 25° C.
Donor: 5% DMSO-containing buffer
Compound concentration: 50 μmol/L

[5] = system: underactive bladder models; test: Residual urinary volumes and bladder capacities in underactive bladder models (cystometry); assay type: in vivo, rat; conditions: 0.01 mg/kg, oral, underactive bladder model rats, versus normal group
Protocol: The underactive bladder models were constructed in accordance with the following procedure. Female Wistar rats (8 to 9 weeks age) were anesthetized by intraperitoneal administration of Somnopentyl (40 mg/kg), followed by dorsal shaving, and fixed in abdominal positions. Each of the dorsal areas was disinfected with chlorhexidine gluconate (5% hibitane liquid). The waist area was median-incised to expose the spinal column. After excision of the fifth lumbar spinous process, a silicone rubber was inserted into the sixth lumbar direction from a hole bored by a mini drill. For the purpose of avoiding infections, after completion of the surgical operation, benzylpenicillin potassium (25000 U/0.25 mL/body) was added dropwise to the incised area. The muscle and skin of the incised area were sutured with silk threads, and iodine tincture was applied to the sutured area. After the operation, maintenance of voiding was carried out by manual compressions three times daily. For the purpose of avoiding infections, potassium penicillin G (1.25 units/body) was administered subcutaneously. More than 5 days prior to cystometric evaluation, a catheter for cystometrogram was indwelled in the bladder. Anesthesia with sodium pentobarbital (40 mg/kg by intraperitoneal administration) and incision along the midline of the abdomen were carried out, followed by incision of the apex of the bladder. A catheter for cystometrogram filled with physiological saline was inserted into the bladder from a hole of the apical area, and fixed by ligation using silk suture threads. […]
The rats were anesthetized with ether and housed in a Bollmann cage 2 weeks after the construction of the models. To the front end of each of the bladder catheters, a pressure transducer via a three-way cock was connected, and the intravesical pressure was recorded using a strain pressure amplifier•recorder. […]
[…] After 1 hr, physiological saline was perfused into the bladder at a flow rate of 2 mL/h and voiding parameters (bladder capacity and residual urinary volume) were measured. […] Voiding parameters were calculated for each cystometry. […]

male rats = test: Digestive symptoms after repeated oral administration; assay type: in vivo, rat; conditions: 0.1 mg/kg oral, repeated for 4 days
Protocol: Using male rats, aged 6 weeks, general states of the rats were observed after repeating oral administration of the test compound at a dose of 0.1 mg/kg for 4 days. To a control, injectable water which is a medium was administered.

CCCCC[C@](C)(O)C/C=C/[C@H]1CCC(=O)[C@@H]1CCSc1nc(C(=O)O)cs1 [Comparative compound B, 2-[(2-{(1R,2R)-2-[(1E,4S)-4-hydroxy-4-methyl-1-nonen-1-yl]-5-oxocyclopentyl}ethyl)thio]-1,3-thiazole-4-carboxylic acid, reference compound]
effect on the blood pressure (normal rats): tendency to decrease | increase in heart rate (normal rats): about 20% | Residual rate ([1]; Reaction time 0 h): 100% | Residual rate ([1]; Reaction time 0.5 h): 91.5% | Residual rate ([1]; Reaction time 1 h): 78.1% | Residual rate ([1]; Reaction time 1 h, listed as comparative compound B): ≤ 80% | Residual rate ([1]; Reaction time 2 h): 62.3% | Residual rate ([1]; Reaction time 2 h, listed as comparative compound B): about 60% | reduction of blood pressure ([2]; 100 ng/kg/min): about 10% | reduction of blood pressure ([2]; 300 ng/kg/min): about 25% | improvement in maximal urinary flow rate over the vehicle group [3]: 27% | effect on the cardiac functions (cynomolgus monkeys): inhibitory effect

C[C@@](O)(C/C=C/[C@H]1COC(=O)N1CCSc1nc(C(=O)O)cs1)CCCC(F)(F)F [Comparative compound E, 2-[(2-{(4S)-2-oxo-4-[(1E,4S)-8,8,8-trifluoro-4-hydroxy-4-methyl-1-octenyl]-1,3-oxazolidin-3-yl}ethyl)sulfanyl]-1,3-thiazole-4-carboxylic acid, reference compound]
Papp at 4 hr, 50 μmol/L [4]: 0.6 ×10⁻⁶ cm/s

C=C(C)CC[C@](C)(O)C/C=C/[C@H]1CCC(=O)[C@@H]1CCSc1nc(C(=O)O)cs1 [Comparative compound A, 2-[(2-{(1R,2R)-2-[(1E,4S)-4-hydroxy-4,7-dimethyl-1,7-octadien-1-yl]-5-oxocyclopentyl}ethyl)thio]-1,3-thiazole-4-carboxylic acid]
effect on the blood pressure (normal rats): tendency to increase | increase in blood pressure (normal rats; 1 mg/kg): about 10% | bladder capacity [5]: significant decrease

C[C@@](O)(C/C=C/[C@H]1CCC(=O)[C@@H]1CCSc1nc(C(=O)O)cs1)CCCC(F)(F)F [Comparative compound C, 2-[(2-{(1R,5R)-2-oxo-5-[(1E,4S)-8,8,8-trifluoro-4-hydroxy-4-methyl-1-octenyl]cyclopentyl}ethyl)thio]-1,3-thiazole-4-carboxylic acid]
effect on the blood pressure (normal rats): tendency to decrease | increase in heart rate (normal rats): about 20% | digestive symptoms such as soft feces (male rats): soft feces were observed
